# Assays:
# Assay type in all cases: functional
# Details in all cases: read-out: Activity
# NCI-H460 = test: Cytotoxicity against human NCI-H460 cells assessed as cell viability at 10 uM incubated for 48 hrs by sulforhodamine B assay relative to control
# Hs-578T = test: Cytotoxicity against human HS-578T cells assessed as cell viability at 10 uM incubated for 48 hrs by sulforhodamine B assay relative to control
# MDA-MB-231 = test: Cytotoxicity against human MDA-MB-231 cells assessed as cell viability at 10 uM incubated for 48 hrs by sulforhodamine B assay relative to control
# UO-31 = test: Cytotoxicity against human UO-31 cells assessed as cell viability at 10 uM incubated for 48 hrs by sulforhodamine B assay relative to control
# SF-268 = test: Cytotoxicity against human SF-268 cells assessed as cell viability at 10 uM incubated for 48 hrs by sulforhodamine B assay relative to control
# SW-620 = test: Cytotoxicity against human SW-620 cells assessed as cell viability at 10 uM incubated for 48 hrs by sulforhodamine B assay relative to control
# SK-MEL-28 = test: Cytotoxicity against human SK-MEL-28 cells assessed as cell viability at 10 uM incubated for 48 hrs by sulforhodamine B assay relative to control
# Malme-3M = test: Cytotoxicity against human Malme-3M cells assessed as cell viability at 10 uM incubated for 48 hrs by sulforhodamine B assay relative to control
# SNB-19 = test: Cytotoxicity against human SNB-19 cells assessed as cell viability at 10 uM incubated for 48 hrs by sulforhodamine B assay relative to control
# M14 = test: Cytotoxicity against human M14 cells assessed as cell viability at 10 uM incubated for 48 hrs by sulforhodamine B assay relative to control
# MOLT-4 = test: Cytotoxicity against human MOLT-4 cells assessed as cell viability at 10 uM incubated for 48 hrs by sulforhodamine B assay relative to control
# PC-3 = test: Cytotoxicity against human PC-3 cells assessed as cell viability at 10 uM incubated for 48 hrs by sulforhodamine B assay relative to control
# COLO 205 = test: Cytotoxicity against human COLO 205 cells assessed as cell viability at 10 uM incubated for 48 hrs by sulforhodamine B assay relative to control
# K562 = test: Cytotoxicity against human K562 cells assessed as cell viability at 10 uM incubated for 48 hrs by sulforhodamine B assay relative to control
# SK-OV-3 = test: Cytotoxicity against human SK-OV-3 cells assessed as cell viability at 10 uM incubated for 48 hrs by sulforhodamine B assay relative to control
# UACC-62 = test: Cytotoxicity against human UACC-62 cells assessed as cell viability at 10 uM incubated for 48 hrs by sulforhodamine B assay relative to control
# SK-MEL-5 = test: Cytotoxicity against human SK-MEL-5 cells assessed as cell viability at 10 uM incubated for 48 hrs by sulforhodamine B assay relative to control
# T47D = test: Cytotoxicity against human T47D cells assessed as cell viability at 10 uM incubated for 48 hrs by sulforhodamine B assay relative to control
# SF-539 = test: Cytotoxicity against human SF-539 cells assessed as cell viability at 10 uM incubated for 48 hrs by sulforhodamine B assay relative to control
# HL-60(TB) = test: Cytotoxicity against human HL-60(TB) cells assessed as cell viability at 10 uM incubated for 48 hrs by sulforhodamine B assay relative to control
# DU-145 = test: Cytotoxicity against human DU-145 cells assessed as cell viability at 10 uM incubated for 48 hrs by sulforhodamine B assay relative to control
# HOP-92 = test: Cytotoxicity against human HOP-92 cells assessed as cell viability at 10 uM incubated for 48 hrs by sulforhodamine B assay relative to control
# RPMI-8226 = test: Cytotoxicity against human RPMI-8226 cells assessed as cell viability at 10 uM incubated for 48 hrs by sulforhodamine B assay relative to control
# OVCAR-4 = test: Cytotoxicity against human OVCAR-4 cells assessed as cell viability at 10 uM incubated for 48 hrs by sulforhodamine B assay relative to control
# TK-10 = test: Cytotoxicity against human TK-10 cells assessed as cell viability at 10 uM incubated for 48 hrs by sulforhodamine B assay relative to control
# BT-549 = test: Cytotoxicity against human BT-549 cells assessed as cell viability at 10 uM incubated for 48 hrs by sulforhodamine B assay relative to control
# SN12C = test: Cytotoxicity against human SN12C cells assessed as cell viability at 10 uM incubated for 48 hrs by sulforhodamine B assay relative to control
# A549 = test: Cytotoxicity against human A549 cells assessed as cell viability at 10 uM incubated for 48 hrs by sulforhodamine B assay relative to control
# IGROV-1 = test: Cytotoxicity against human IGROV-1 cells assessed as cell viability at 10 uM incubated for 48 hrs by sulforhodamine B assay relative to control
# OVCAR-5 = test: Cytotoxicity against human OVCAR-5 cells assessed as cell viability at 10 uM incubated for 48 hrs by sulforhodamine B assay relative to control
# HCT-29 = test: Cytotoxicity against human […] cells assessed as cell viability at 10 uM incubated for 48 hrs by sulforhodamine B assay relative to control
# RXF 393 = test: Cytotoxicity against human RXF 393 cells assessed as cell viability at 10 uM incubated for 48 hrs by sulforhodamine B assay relative to control
# SNB-75 = test: Cytotoxicity against human SNB-75 cells assessed as cell viability at 10 uM incubated for 48 hrs by sulforhodamine B assay relative to control
# HCT-15 = test: Cytotoxicity against human HCT-15 cells assessed as cell viability at 10 uM incubated for 48 hrs by sulforhodamine B assay relative to control
# HOP-62 = test: Cytotoxicity against human HOP-62 cells assessed as cell viability at 10 uM incubated for 48 hrs by sulforhodamine B assay relative to control
# NCI-H226 = test: Cytotoxicity against human NCI-H226 cells assessed as cell viability at 10 uM incubated for 48 hrs by sulforhodamine B assay relative to control
# KM12 = test: Cytotoxicity against human KM12 cells assessed as cell viability at 10 uM incubated for 48 hrs by sulforhodamine B assay relative to control
# MCF7 = test: Cytotoxicity against human MCF7 cells assessed as cell viability at 10 uM incubated for 48 hrs by sulforhodamine B assay relative to control
# NCI/ADR-RES = test: Cytotoxicity against human NCI/ADR-RES cells assessed as cell viability at 10 uM incubated for 48 hrs by sulforhodamine B assay relative to control
# OVCAR-3 = test: Cytotoxicity against human OVCAR-3 cells assessed as cell viability at 10 uM incubated for 48 hrs by sulforhodamine B assay relative to control
# 786-0 = test: Cytotoxicity against human 786-0 cells assessed as cell viability at 10 uM incubated for 48 hrs by sulforhodamine B assay relative to control
smiles,measurement,setting,value
O=C(NCCNc1nccc(-c2c(-c3cccc(F)c3)nc3sccn23)n1)c1ccccc1,viability at 10 µM,NCI-H460,28.8%
same,viability at 10 µM,Hs-578T,64.7%
same,viability at 10 µM,MDA-MB-231,65.1%
same,viability at 10 µM,UO-31,22.8%
same,viability at 10 µM,SF-268,58.8%
same,viability at 10 µM,SW-620,52.3%
same,viability at 10 µM,SK-MEL-28,58.7%
same,viability at 10 µM,Malme-3M,23.7%
same,viability at 10 µM,SNB-19,63.5%
same,viability at 10 µM,M14,28.4%
same,viability at 10 µM,MOLT-4,46.5%
same,viability at 10 µM,PC-3,62.9%
same,viability at 10 µM,COLO 205,10.4%
same,viability at 10 µM,K562,44%
same,viability at 10 µM,SK-OV-3,75.1%
same,viability at 10 µM,UACC-62,11.2%
same,viability at 10 µM,SK-MEL-5,25.6%
same,viability at 10 µM,T47D,34.5%
same,viability at 10 µM,SF-539,81.2%
same,viability at 10 µM,HL-60(TB),83.7%
same,viability at 10 µM,DU-145,64.5%
same,viability at 10 µM,HOP-92,82.2%
same,viability at 10 µM,RPMI-8226,45.7%
same,viability at 10 µM,OVCAR-4,55.4%
same,viability at 10 µM,TK-10,73%
same,viability at 10 µM,BT-549,71.2%
same,viability at 10 µM,SN12C,48.2%
same,viability at 10 µM,A549,26.7%
same,viability at 10 µM,IGROV-1,16.5%
same,viability at 10 µM,OVCAR-5,79.9%
same,viability at 10 µM,HCT-29,25.8%
same,viability at 10 µM,RXF 393,60.6%
same,viability at 10 µM,SNB-75,54.6%
same,viability at 10 µM,HCT-15,34.6%
same,viability at 10 µM,HOP-62,77.5%
same,viability at 10 µM,NCI-H226,44.3%
same,viability at 10 µM,KM12,56.6%
same,viability at 10 µM,MCF7,23.7%
same,viability at 10 µM,NCI/ADR-RES,64.9%
same,viability at 10 µM,OVCAR-3,67.8%
same,viability at 10 µM,786-0,45.4%
O=C(NCCNc1nccc(-c2c(-c3cccc(F)c3)nc3sccn23)n1)c1ccc(Cl)cc1,viability at 10 µM,NCI-H460,35.8%
same,viability at 10 µM,Hs-578T,74.8%
same,viability at 10 µM,MDA-MB-231,65.5%
same,viability at 10 µM,UO-31,28.1%
same,viability at 10 µM,SF-268,67.9%
same,viability at 10 µM,SW-620,65.2%
same,viability at 10 µM,SK-MEL-28,64.9%
same,viability at 10 µM,Malme-3M,34.9%
same,viability at 10 µM,SNB-19,71.9%
same,viability at 10 µM,M14,38.8%
same,viability at 10 µM,MOLT-4,65.7%
same,viability at 10 µM,PC-3,72.5%
same,viability at 10 µM,COLO 205,29.8%
same,viability at 10 µM,K562,54.4%
same,viability at 10 µM,SK-OV-3,80.9%
same,viability at 10 µM,UACC-62,14.7%
same,viability at 10 µM,SK-MEL-5,33.6%
same,viability at 10 µM,T47D,49%
same,viability at 10 µM,SF-539,90%
same,viability at 10 µM,HL-60(TB),99.2%
same,viability at 10 µM,DU-145,71%
same,viability at 10 µM,HOP-92,87.1%
same,viability at 10 µM,RPMI-8226,62.4%
same,viability at 10 µM,OVCAR-4,77.9%
same,viability at 10 µM,TK-10,75.4%
same,viability at 10 µM,BT-549,75.9%
same,viability at 10 µM,SN12C,52.5%
same,viability at 10 µM,A549,34.8%
same,viability at 10 µM,IGROV-1,22.5%
same,viability at 10 µM,OVCAR-5,88.3%
same,viability at 10 µM,HCT-29,35.2%
same,viability at 10 µM,RXF 393,72.9%
same,viability at 10 µM,SNB-75,63.5%
same,viability at 10 µM,HCT-15,40.1%
same,viability at 10 µM,HOP-62,91.9%
same,viability at 10 µM,NCI-H226,51.2%
same,viability at 10 µM,KM12,62.8%
same,viability at 10 µM,MCF7,27.7%
same,viability at 10 µM,NCI/ADR-RES,74.3%
same,viability at 10 µM,OVCAR-3,75.7%
same,viability at 10 µM,786-0,54.5%
O=S(=O)(NCCNc1nccc(-c2c(-c3cccc(F)c3)nc3sccn23)n1)c1cccc(F)c1,viability at 10 µM,NCI-H460,43%
same,viability at 10 µM,Hs-578T,78.3%
same,viability at 10 µM,MDA-MB-231,79%
same,viability at 10 µM,UO-31,30.2%
same,viability at 10 µM,SF-268,68.6%
same,viability at 10 µM,SW-620,75.8%
same,viability at 10 µM,SK-MEL-28,94.7%
same,viability at 10 µM,Malme-3M,108%
same,viability at 10 µM,SNB-19,73%
same,viability at 10 µM,M14,69.4%
same,viability at 10 µM,MOLT-4,57.8%
same,viability at 10 µM,PC-3,67.2%
same,viability at 10 µM,COLO 205,45.1%
same,viability at 10 µM,K562,48.6%
same,viability at 10 µM,SK-OV-3,95.8%
same,viability at 10 µM,UACC-62,56.2%
same,viability at 10 µM,SK-MEL-5,53.5%
same,viability at 10 µM,T47D,49.1%
same,viability at 10 µM,SF-539,95.6%
same,viability at 10 µM,HL-60(TB),101%
same,viability at 10 µM,DU-145,65.1%
same,viability at 10 µM,HOP-92,88.2%
same,viability at 10 µM,RPMI-8226,66.8%
same,viability at 10 µM,OVCAR-4,64.8%
same,viability at 10 µM,TK-10,88%
same,viability at 10 µM,BT-549,81.5%
same,viability at 10 µM,SN12C,55.3%
same,viability at 10 µM,A549,42.1%
same,viability at 10 µM,IGROV-1,24.6%
same,viability at 10 µM,OVCAR-5,100%
same,viability at 10 µM,HCT-29,43.9%
same,viability at 10 µM,RXF 393,80.2%
same,viability at 10 µM,SNB-75,80%
same,viability at 10 µM,HCT-15,38.9%
same,viability at 10 µM,HOP-62,83.5%
same,viability at 10 µM,NCI-H226,62.5%
same,viability at 10 µM,KM12,44.2%
same,viability at 10 µM,MCF7,30.8%
same,viability at 10 µM,NCI/ADR-RES,80.3%
same,viability at 10 µM,OVCAR-3,76.7%
same,viability at 10 µM,786-0,63.9%
